# Experimental data from US20200405715A1, “COMPOSITIONS AND METHODS FOR TREATING CANCER AND INFLAMMATORY DISEASES” (University of Pittsburgh - Of the Commonwealth System of …, priority 2016, published 2020).
# Assays:
# [1] = tested on: SCF substrates p27, NRF2 and CDT1; test: SCF substrates, protein immunoblotting in HepG2 cells; format: cell-based; settings: 10 μM, various times (FIG. 6A)
# [2] = tested on: human lung tissue; test: LPS-treated human lung slices, cytokines and immunoblotting; format: cell-based
# Description: (§1) Cells were then treated with LPS (10 ng/ml) for additional 2 h. Media were then collected and TNF concentration was determined by ELISA. […] Lung tissue was collected and assayed for immunoblotting. Culture media was collected and assayed for cytokines.
# 3-(decylamino)-5-phenylcyclohex-2-en-1-one was next tested in human lung tissue. Human lung slices were pretreated with 3-(decylamino)-5-phenylcyclohex-2-en-1-one for 18 h before LPS treatment (100 ng/ml) for additional 4 h. […] 3-(decylamino)-5-phenylcyclohex-2-en-1-one reduced nedd8-cullins level and rescued IκBα in a dose dependent manner.
# [3] = tested on: Nedd8-cullin; test: Cullin neddylation, protein immunoblotting in HepG2 cells; format: cell-based
# From the text: Cells were then collected and assayed for protein immunoblotting. […]
# DCN1 protein is believed to harbor a UBC12 binding pocket. Scott et al, Cell 757:1671-84 (2014). […] Scott et al. (2014). The N-terminal acetylation acts as an avidity enhancer within an interconnected multiprotein complex. Science, 554:674-8 (2011). Specifically, n-terminal of UBC12 is acetylated (FIG. 1A, yellow) and completely buried inside the hydrophobic pocket within DCN1 (4gao.PDB, FIG. 1B). Small molecule inhibition of the DCN1 hydrophobic pocket would presumably disrupt UBC12 binding, and thus disrupt Neddylation of Cullin protein. Potential ligands were assessed that might fit the DCN1 domain cavities (FIG. 1B). 3-(pentylamino)-5-phenylcyclohex-2-en-1-one was selected for future testing (FIG. 1C). […] MLN4924 was used as a positive control.
# [4] = tested on: PBMC cells; test: LPS-induced TNF release from PBMC cells (ELISA); format: cell-based; settings: various concentrations for 2 h, then LPS (10 ng/ml) for 12 h (FIG. 10A)
# Description: as §1
# Since SCF machinery is believed to be essential for NF-kB activation, it was investigated whether the DCN1 inhibitors could affect inflammation. 3-(decylamino)-5-phenylcyclohex-2-en-1-one was first tested in PBMCs cells. Briefly, PBMC cells were treated with 3-(decylamino)-5-phenylcyclohex-2-en-1-one at various concentrations for 2 h before exposed to LPS (10 ng/ml) for 12 h.
# [5] = tested on: HepG2 cells; test: Wound-healing assay; format: cell-based; settings: 36 h (FIG. 5C)
# Description: (§2) HepG2 cells were treated with 3-(decylamino)-5-phenylcyclohex-2-en-1-one for 36 h with various concentrations. Cells were then analyzed by BrdU uptake and 7-AAD staining, G0, G1, S, G2/M phase cells were then quantitated and graphed. […] Confluent monolayers of HepG2 cells were injured and cellular migration into the wound was determined under vehicle or 3-(decylamino)-5-phenylcyclohex-2-en-1-one treated condition. 36 h later cells were then observed under white field microscopy and recovery of cells to wound heal was quantified and graphed (right).
# [6] = tested on: HepG2 cells; test: Cell cycle analysis by BrdU uptake and 7-AAD staining; format: cell-based
# Description: as §2
# HepG2 cells were treated with 3-(decylamino)-5-phenylcyclohex-2-en-1-one at 10 μM for various times. At each time point, cells were analyzed by BrdU uptake and 7-AAD staining, G0, G1, S, G2/M phase cells were then quantitated and graphed. […] Cells were then observed under white field microscopy.
# [7] = tested on: HepG2 tumor tissue; test: PD/PK study, tumor tissue immunoblotting after single oral dose; format: in vivo, nude mice
# Description: Nude mice were implanted with HepG2 cells (10^6 cells) through subcutaneous injection. Five weeks later, once tumor size reaches 0.3 cm^3, mice were randomized and given 1 dose of 3-(decylamino)-5-phenylcyclohex-2-en-1-one (15 mg/kg) by oral gavage. Mice were then euthanized, plasma and tumor tissue were isolated for analysis. Tumor tissue were grinded and assayed for protein immunoblotting (n=3-4).
# A PD/PK study was also performed. Mice were implanted with HepG2 cells (10^6 cells) through subcutaneous injection. 5 weeks later, once tumor size reached 0.3 cm^3, mice were randomized and given 1 dose of 3-(decylamino)-5-phenylcyclohex-2-en-1-one (15 mg/kg) by oral gavage (FIG. 9A). […] NRF2 protein levels peaked 4 h after administration of BC1558 and started to decline by 8-24 h post-dose. The timing of CDT1 accumulation was compared to NRF2, peaking 4 h after 3-(decylamino)-5-phenylcyclohex-2-en-1-one administration.
# [8] = tested on: DSS induced colonic inflammation; test: DSS induced colitis model; format: in vivo, C57BL6 mice; settings: DSS in water
# Description: FIGS. 12A-12D show DCN1 inhibitors reduce DSS induced colonic inflammation, specifically the following experimental results C57BL6 mice were fed with water ad lib containing 3% dextran sulfate sodium (DSS) for six days. DCN1 inhibitors were administered into drinking water at 10 mg/kg/d, starting at day 1. […] The data represent n=4 mice/group, *P<0.05 versus CON.
# Also tested were 3-(decylamino)-5-phenylcyclohex-2-en-1-one (BC1558), 3-(dibenzylamino)-5-phenylcyclohex-2-en-1-one (BC1634) and 3-((4-phenoxybenzyl)amino)-5-phenylcyclohex-2-en-1-one (BC1653) in a mouse colitis model to confirm its anti-inflammatory activity. Briefly, C57BL6 mice were fed with water containing 3.5% […] and colonic length was measured. DSS produced a significant decrease in colon length in mice, consistent with colonic inflammation (FIG. 12A-B). […] Colonic tissue cytokine levels were further analyzed.
# [9] = tested on: HepG2 cells; test: HepG2 cell proliferation (CellTiter-Glo Luminescent Cell Viability Assay); format: cell-based; settings: 96 h
# Description: Cell proliferation were then measured by CellTiter-Glo® Luminescent Cell Viability Assay (n=3).
# 4KHepG2 cells were seeded in 96 well plates for overnight. Compounds listed in Table 3 were then added to each well at various concentrations. 96 h later, cell proliferation was measured by ATP production using a CellTiter-Glo® Luminescent Cell Viability Assay (Promega).
# 3-(pentylamino)-5-phenylcyclohex-2-en-1-one was modified by adding a different sidechain. These novel compounds were tested further in an in vitro proliferation assay using ATPLite Cell Proliferation kit. […] Others lost activity in reducing Cullin Neddylation and inhibiting cell proliferation (FIG. 3C-D).
# [10] = human lung slices, dose dependent
# [11] = single dose 15 mg/kg oral gavage, tumor tissue
compound,measurement,setting,value
"CCCCCCCCCCNC1=CC(=O)CC(c2ccccc2)C1 (stereo not shown) [BC1558, 3-(decylamino)-5-phenylcyclohex-2-en-1-one]","SCF substrates p27, NRF2 and CDT1",[1],increased
same,IκBα,[2]; [10],rescued
same,nedd8-cullins level,[2]; [10],reduced
same,"LPS induced IL1, IL6 and TNF release from lung tissue","[2]; pretreated 18 h, LPS 100 ng/ml for 4 h",potently inhibited
same,neddylation of several cullin isoforms,"[3]; 10 μM, time dependent (FIG. 6A)",drastically reduced
same,neddylation of several cullin isoforms,"[3]; 48 h, dose dependent (FIG. 5A)",drastically reduced
same,activity compared with MLN4924,"[3]; 48 h, various concentration (FIG. 4)",comparable activity
same,reducing Cullin Neddylation,"[3]; 48 h, various concentrations (FIG. 3C)",exhibited activity
same,LPS-induced TNF release from PBMC cells,[4],potently inhibited
same,hepG2 cells migration,[5],showed inhibition
same,G0 and G2/M phases,"[6]; 10 μM, at 16 h (FIG. 6B)",increased
same,S phase,"[6]; 10 μM, at 16 h (FIG. 6B)",effectively decreased
same,G0 and G2/M phases,"[6]; 36 h, dose dependent (FIG. 5B)",increased
same,S phase,"[6]; 36 h, dose dependent (FIG. 5B)",effectively decreased
same,"phosphorylated CHK1 (Ser 317), DNA damage in the tumor","[7]; at 8 h after a single administration, 15 mg/kg oral gavage",increased levels
same,steady state levels of NRF2 and CDT1,[7]; [11],time-dependent increase
same,time at which NRF2 protein levels started to decline post-dose,[7]; [11],8 to 24 h
same,time of maximal effect on NEDD8-cullin levels post-dose,[7]; [11],2 to 4 h
same,time of peak CDT1 accumulation after administration,[7]; [11],4 h
same,time of peak NRF2 protein levels after administration,[7]; [11],4 h
same,time to decrease of NEDD8-cullin levels after administration,"[7]; single dose 15 mg/kg oral gavage, tumor tissue (FIG. 9B)",≤ 1 h
same,colon length compared vehicle,[8]; compounds in drinking water at 10 mg/kg/d (FIG. 12A-B),significant increase
same,IL1β and IL6 levels in colonic tissue compared to vehicle,[8]; compounds in drinking water at 10 mg/kg/d (FIG. 12C-D),large reduction
same,inhibiting cell proliferation,[9]; various concentrations (FIG. 3D),exhibited activity
same,IC50,"[9]; Homo sapiens, ATP production, n=3, read-out: IC50Proliferation",< 1 µM
